Laboratory results as given in patent US10004716B2, “Therapeutic/ preventive agent containing coumarin derivative as active ingredient” (NIPPON ZOKI PHARMACEUTICAL CO., LTD., priority 2014, dated 2018).

Columns and labels:
[1] = system: IL-1β gene expression; experiment: Suppression of LPS-induced gene expression of inflammation-related factors in THP-1 cells (real time PCR): IL-1β; format: cell-based, human; conditions: PMA-differentiated THP-1 cells; test substance 12.5 μmol/mL 2 hours, then LPS 10 mg/mL 3 hours; n = 3
Experimental: (§1) THP-1 cells were subjected to induction of differentiation for 72 hours with PMA (phorbol 12-myristate 13-acetate; 100 nM/L) and then the THP-1 cells (5×10^5 cells/mL) were incubated for 24 hours in a RPMI 1640+10% FCS culture solution in a 24-well plate. After that, a test substance was added so as to make the final concentration 12.5 μmol/mL followed by conducting the preincubation for 2 hours, a lipopolysaccharide (LPS) was then added thereto so as to make the final concentration 10 mg/mL and, after 3 hours, the cells were recovered.
(§2) QIAzol Lysis Reagent (QIAGEN) (1 mL) was added to the above to suspend, 200 μL of chloroform was added thereto followed by mixing and centrifugation (at 4° C. and 1500 rpm) was conducted whereby the supernatant liquid was recovered. Total RNA was extracted and purified by treating the supernatant liquid with QIACube (QIAGEN) and RNeasy Micro Kit (QIAGEN). cDNA was prepared from the total RNA using Omniscript RT kit (QIAGEN) and Oligo(dT)12-18 Primer (Invitrogen).
(§3) Gene expression level of the inflammation-related factors [IL-1β, IL-6 and monocyte chemotactic protein (MCP)-1] was measured by a conventional real time PCR method using a fluorescent dye SYBR GREEN I (Roche Diagnostics) by Light Cycler LC 480 (the same) using cDNA synthesized from the total RNA extracted in the above (2). A calibration curve was prepared by diluting the PCR product quantified by PicoGreen dsDNA Quantitation kit (Molecular probes) (a DNA quantitation kit) to an extent of 10^2˜10^7 copies/μL. From each of the resulting quantified values, copy numbers per 10000 copies of GAPDH gene being an internal standard were calculated.

[2] = system: monocyte chemotactic protein (MCP)-1 gene expression; experiment: Suppression of LPS-induced gene expression of inflammation-related factors in THP-1 cells (real time PCR): MCP-1; format: cell-based, human; conditions: PMA-differentiated THP-1 cells; test substance 12.5 μmol/mL 2 hours, then LPS 10 mg/mL 3 hours; n = 3
Experimental: as §1, §2, §3

[3] = system: endothelin gene expression; experiment: Evaluation I: TGF-β-induced gene expression of fibrosis-related factors in NHLF cells: endothelin; format: cell-based, human; conditions: 25 μmol/L test substance 2 hours, then TGF-β 5 ng/mL 24 hours, n = 3
Experimental: NHLF cells were sown so as to make their amount 4×10^4 cells/well to each well of a 12-well plate and incubated to an extent of 80% confluent in a medium where fibroblast growth medium 2 supplement mix (FGM-2 SingleQuots, Lonza) was added to a fibroblast basal medium (FBM, Lonza). After that, incubation was conducted for 2 hours in a Dulbecco modified Eagle medium (DMEM) containing 25 μmol/L of a test substance and, after addition of […] growth factor (TGF)-β thereto so as to make its final concentration 5 ng/mL, incubation was carried out for 24 hours more.
as §2, with “rpm) was then conducted whereby” for “rpm) was conducted whereby”
as §3, with “fibrosis-related” for “inflammation-related”, “[connective tissue growth factor (CTGF), α-smooth muscle actin (SMA), fibronectin, endothelin” for “[IL-1β, IL-6”, “type I collagen (Col 1)]” for “monocyte chemotactic protein (MCP)-1]”

[4] = system: rats suffering from degenerative intervertebral disk induced by nicotine; experiment: 50% reaction threshold value to mechanical stimulation (von Frey test) in rats with degenerative intervertebral disk induced by nicotine; format: in vivo; conditions: SD male rats, after 41 days from exposure to nicotine, 1 hour after administration; per os once daily; n = 8; normal control 15.0, diseased control 4.6
Experimental: After 16 days from the purchase, SD male rats were organized into normal control group and nicotine group in terms of body weight, 50% reaction threshold value (measuring method will be mentioned later) and duration of walking time and, after 17 days from the purchase, exposure to nicotine was started for a nicotine group. Nicotine was prepared into 344.8 mg/mL using a physiological saline solution, filled into an osmotic pressure pump and retained under the skin of waist of rats. After 21 days from the retaining, an osmotic pressure pump into which a freshly-prepared nicotine solution was filled was retained under the skin of rats of five groups except the normal control group. Nicotine was prepared into […] using a physiological saline solution, filled into an osmotic pressure pump and retained under the skin of waist of the SD male rats.
After 13 days from exposure to nicotine, measurement of 50% reaction threshold value, duration of walking time and body weight were measured and a group organization was done into 6 groups of normal control group, diseased control group, compound 57-administered group, compound 58-administered group, compound 60-administered group and compound 68-administered group.
A test substance was suspended using 0.5 w/v % CMC and, together with stirring, 10 mL/kg of the suspension was repeatedly administered per os once daily after 14 to 52 or 53 days from the initiation of exposure to nicotine using an oral sonde for rats. To the normal control group and the diseased control group, 0.5 w/v % CMC was repeatedly administered per os in the same administration schedule and administration method.
A 50% reaction threshold value to mechanical stimulation was measured before the exposure to nicotine and after 41 days from the exposure to nicotine. The six groups of the rats mentioned in the above (2) were placed in a transparent acrylic gauge where the bottom is a metal wire, acclimated for about 3 minutes and a 50% reaction threshold value to mechanical stimulation was measured after 1 hour from the administration of a testing drug.
The measurement was conducted using a von Frey filament (manufactured by North Coast Medical Inc.) in accordance with a method of Chaplan, et al. (Journal of Neuroscience Methods, vol. 53, no. 1, pages 55 to 63, 1994) and a method of Dixon, et al. ([…] of Pharmacology and Toxicology, vol. 20, pages 441 to 462, 1980). […] A 50% reaction threshold value to mechanical stimulation was measured using the reaction for the stimulation for six times in total and a mean value in each of the groups was calculated. […]

| Structure (SMILES) | Copy Numbers per 10000 Copies of GAPDH IL-1β [1] | Copy Numbers per 10000 Copies of GAPDH MCP-1 [2] | Copy Numbers per 10000 Copies of GAPDH Endothelin [3] | Threshold Value for Pain [4] [g] |
| --- | --- | --- | --- | --- |
| O=c1oc2c(OS(=O)(=O)c3ccc(C(F)(F)F)cc3)cccc2cc1NS(=O)(=O)c1cccc(C(F)(F)F)c1 [Compound 57, 2-Oxo-3-[[3-(trifluoromethyl)phenyl]sulfonylamino]-chromen-8-yl 4-(trifluoromethyl)benzenesulfonate] | 30318.3 copies per 10000 copies of GAP | 1001.3 copies per 10000 copies of GAP | 8.2 copies per 10000 copies of GAP | 7.5 |
| O=c1oc2c(OS(=O)(=O)c3ccc(C(F)(F)F)cc3)cccc2cc1NS(=O)(=O)c1cccc(Br)c1 [Compound 58, 3-[(3-Bromophenyl)sulfonylamino]-2-oxochromen-8-yl 4-(trifluoromethyl)benzenesulfonate] | 31904.4 copies per 10000 copies of GAP | 1040.9 copies per 10000 copies of GAP | 7.6 copies per 10000 copies of GAP | 6.7 |
| O=c1oc2c(OS(=O)(=O)c3cccc(Br)c3)cccc2cc1NS(=O)(=O)c1cccc(C(F)(F)F)c1 [Compound 60, 2-Oxo-3-[[3-(trifluoromethyl)phenyl]sulfonylamino]-chromen-8-yl 3-bromobenzenesulfonate] | 29872.3 copies per 10000 copies of GAP | 1787.5 copies per 10000 copies of GAP | 16.9 copies per 10000 copies of GAP | 9.6 |
| O=c1oc2c(OS(=O)(=O)c3cccc(C(F)(F)F)c3)cccc2cc1NS(=O)(=O)c1ccc(C(F)(F)F)cc1 [Compound 68, 2-Oxo-3-[[4-(trifluoromethyl)phenyl]sulfonylamino]-chromen-8-yl 3-(trifluoromethyl)benzenesulfonate] | 24423.1 copies per 10000 copies of GAP | 823.5 copies per 10000 copies of GAP | 6.4 copies per 10000 copies of GAP | 7.6 |
